Measured values from ChEMBL document CHEMBL1201862, “PubChem BioAssay data set” (2004).
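Five concentrations, 48 hours, 96-well plates. GI50: concentration for 50% inhibition of growth.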 Active and inactive are the calls of the source. No stated cut-off is given here; in the data, active = GI50 up to about 1.1 µM and inactive = higher.

Assays:
Experiment in all cases: DTP human tumour cell line panel, 48 h
DMS-273 = tested on: DMS-273
KM-20L2 = tested on: KM-20L2
LXFL 529 = tested on: LXFL 529
M19-MEL = tested on: M19-MEL
SNB-78 = tested on: SNB-78
XF498 = tested on: XF498
DMS-114 = tested on: DMS-114
RXF 631 = tested on: RXF 631
HOP-18 = tested on: HOP-18

CN/C(=N\C#N)N(Cc1ccccc1)Cc1ccccc1
GI50 (DMS-273): > 100 µM (inactive)
GI50 (KM-20L2): > 100 µM (inactive)
GI50 (LXFL 529): > 100 µM (inactive)
GI50 (M19-MEL): > 100 µM (inactive)
GI50 (SNB-78): > 100 µM (inactive)
GI50 (XF498): > 100 µM (inactive)

COc1cc2c(c(OC)c1OC)-c1ccc(SC)c(=O)cc1[C@@H](NCc1cccc(C#N)c1)CC2
GI50 (DMS-114): 0.0153 µM (active)
GI50 (DMS-273): 0.00647 µM (active)
GI50 (KM-20L2): 0.0131 µM (active)
GI50 (LXFL 529): 0.0147 µM (active)
GI50 (M19-MEL): 0.0193 µM (active)
GI50 (RXF 631): 0.0075 µM (active)
GI50 (SNB-78): 0.0197 µM (active)
GI50 (XF498): 0.0257 µM (active)

CCOC(=O)CC(NC(=O)c1nc[nH]c1[N+](=O)[O-])C(=O)OCC (configuration not stated)
GI50 (DMS-114): 43.3 µM (inactive)
GI50 (DMS-273): 40.6 µM (inactive)
GI50 (LXFL 529): 41.5 µM (inactive)
GI50 (M19-MEL): 82 µM (inactive)

COC1=CC(=O)c2c(O)c3c(c(O)c2C1=O)C=C(C)OC3O (configuration not stated)
GI50 (DMS-114): 1.23 µM (inactive)
GI50 (DMS-273): 1.01 µM (active)
GI50 (KM-20L2): 0.365 µM (active)
GI50 (LXFL 529): 1.36 µM (inactive)
GI50 (M19-MEL): 0.224 µM (active)
GI50 (SNB-78): 1.73 µM (inactive)
GI50 (XF498): 1.84 µM (inactive)

COc1ccc(/C=N/N=C(\N)NO)c(OC)c1C
GI50 (DMS-114): 13.2 µM (inactive)
GI50 (HOP-18): 5.24 µM (inactive)
GI50 (LXFL 529): 3.62 µM (inactive)
GI50 (SNB-78): 20.5 µM (inactive)

CCCCCCCCCCCC(=O)OCC1OC(OC)C(NC(=O)N(CCCl)N=O)C(O)C1O (configuration not stated)
GI50 (DMS-114): 16.6 µM (inactive)
GI50 (DMS-273): 11.2 µM (inactive)
GI50 (HOP-18): 34.3 µM (inactive)
GI50 (KM-20L2): 17 µM (inactive)
GI50 (LXFL 529): 12.6 µM (inactive)
GI50 (M19-MEL): 38.8 µM (inactive)
GI50 (XF498): 12.4 µM (inactive)

COc1ccc(CN(O)C2C(CO)OC(n3cc(I)c(=O)[nH]c3=O)C2O)cc1 (configuration not stated)
GI50 (DMS-114): > 100 µM (inactive)
GI50 (DMS-273): > 100 µM (inactive)
GI50 (HOP-18): > 100 µM (inactive)
GI50 (KM-20L2): > 100 µM (inactive)
GI50 (LXFL 529): > 100 µM (inactive)
GI50 (M19-MEL): > 100 µM (inactive)
GI50 (SNB-78): > 100 µM (inactive)
GI50 (XF498): > 100 µM (inactive)

CC1=C(SC#N)S(=O)(=O)N(c2ccccc2)C(C)=C1SC#N
GI50 (DMS-114): 5.92 µM (inactive)
GI50 (DMS-273): 50.5 µM (inactive)
GI50 (LXFL 529): 22.4 µM (inactive)
GI50 (M19-MEL): 29.5 µM (inactive)
GI50 (SNB-78): 78.3 µM (inactive)
GI50 (XF498): 16.8 µM (inactive)

O=C1CCN2CCC(=O)c3c2c(cc2ccccc32)N1
GI50 (DMS-114): > 100 µM (inactive)
GI50 (DMS-273): > 100 µM (inactive)
GI50 (KM-20L2): > 100 µM (inactive)
GI50 (LXFL 529): > 100 µM (inactive)
GI50 (M19-MEL): > 100 µM (inactive)
GI50 (SNB-78): > 100 µM (inactive)
GI50 (XF498): 26.8 µM (inactive)

CCOC(=O)c1nc(-c2ccccc2)oc1OCC
GI50 (DMS-114): > 100 µM (inactive)
GI50 (DMS-273): 90.2 µM (inactive)
GI50 (HOP-18): > 100 µM (inactive)
GI50 (KM-20L2): > 100 µM (inactive)
GI50 (LXFL 529): > 100 µM (inactive)
GI50 (M19-MEL): > 100 µM (inactive)
GI50 (SNB-78): > 100 µM (inactive)
GI50 (XF498): 21.2 µM (inactive)

O=C1CCC2(O)c3ccccc3C2Cc2ccccc21 (configuration not stated)
GI50 (DMS-114): > 100 µM (inactive)
GI50 (DMS-273): > 100 µM (inactive)
GI50 (HOP-18): > 100 µM (inactive)
GI50 (KM-20L2): > 100 µM (inactive)
GI50 (M19-MEL): > 100 µM (inactive)
GI50 (SNB-78): > 100 µM (inactive)
GI50 (XF498): > 100 µM (inactive)

COc1ccc(/C=C\c2cc(OC)c(OC)c(OC)c2)cc1OC(=O)NCCN(C)C
GI50 (DMS-114): < 0.0001 µM (active)
GI50 (DMS-273): < 0.0001 µM (active)
GI50 (HOP-18): 16.8 µM (inactive)
GI50 (KM-20L2): 0.136 µM (active)
GI50 (LXFL 529): < 0.0001 µM (active)
GI50 (M19-MEL): < 0.0001 µM (active)
GI50 (RXF 631): 0.000196 µM (active)
GI50 (SNB-78): < 0.0001 µM (active)
GI50 (XF498): < 0.0001 µM (active)

N/N=C(/C(=O)Nc1cccc(Cl)c1)C(C(=O)c1ccc(O)cc1O)C1OC(=O)c2ccccc21 (configuration not stated)
GI50 (DMS-114): > 100 µM (inactive)
GI50 (DMS-273): 65.9 µM (inactive)
GI50 (KM-20L2): > 100 µM (inactive)
GI50 (LXFL 529): > 100 µM (inactive)
GI50 (M19-MEL): > 100 µM (inactive)
GI50 (SNB-78): > 100 µM (inactive)
